The results in this text go back to ChEMBL document CHEMBL1201862, “PubChem BioAssay data set” (2004).

Test systems include DLD-1; LXFL 529; KM-20L2; HOP-18; SNB-78; DMS-114; Hs-578T; XF498.
Common to all, as to assay: NCI tumour cell line growth inhibition, 48 h

Where a name gives a salt, the structure may show the parent alone.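 Step 1: Grow cells in 96-well plates. Step 2: Expose to compound for 48 hours at 5 concentrations. Step 3: Interpolate endpoints linearly; if unreached, use highest concentration. GI50 is the concentration that inhibits growth by half.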 Calls of active or inactive are those of the source. No stated cut-off is given here; in the data, active = GI50 up to about 1.1 µM and inactive = higher.

As to `COC(=O)C1Cc2c([nH]c3ccccc23)C=N1` (stereo not given), the GI50 with DLD-1, in the test with LXFL 529, in the test with KM-20L2, in the test with HOP-18, in the test on SNB-78 and in the test with DMS-114 was > 100 µM (inactive) each time.
As for `O=C1Cc2c([nH]c3cc(Br)ccc23)-c2ccccc2N1`, in the test on Hs-578T, the GI50 is 14.8 µM (inactive).
`O=S(=O)(O)c1ccc2cc(/N=N\c3cc(S(=O)(=O)O)c4cccnc4c3O)ccc2c1`: the GI50 in the test on Hs-578T is > 100 µM (inactive).
Take `Clc1ccccc1C(n1ncc2ccccc21)n1ncc2ccccc21`: the GI50 in the test on DLD-1 was 40.5 µM (inactive); in the test on XF498 it was 14.5 µM (inactive); in the test on LXFL 529, 37 µM (inactive); with SNB-78 it was 71.1 µM (inactive); with DMS-114, 31.3 µM (inactive).
With `Cc1c(S(=O)(=O)c2ccccc2)c(N)n(CCN(C)C)c1C`, the GI50 in the test with Hs-578T was > 100 µM (inactive).
Still for that read-out and setting: to `COc1ccc(C2=C(N)c3c(Cl)cccc3C2=O)cc1` belongs 26.1 µM (inactive).
For `NC1C(O)C(O)C(CO)OC1n1cc(F)c(=O)[nH]c1=O` (stereo not given), the GI50 in the test on DLD-1, in the test with LXFL 529, in the test on HOP-18, with SNB-78 and in the test on DMS-114 was > 100 µM (inactive) throughout.
On to `CC(NNC(=O)c1cc[n+]([BH2-]C#N)cc1)c1ccc(Cl)cc1Cl` (stereo not given), for which, in the test on Hs-578T, the GI50 is 39.5 µM (inactive).
As to `Cc1ccc2c(O)cc(-c3sccc3C)nc2n1`, in the test with Hs-578T, the GI50 was 0.794 µM (active).
For the compound `COc1cc(C2C3=C(N=C4SC(C(C)=O)=C(C)N42)c2ccccc2CC3)cc(OC)c1OC` (stereo not given), the GI50 in the test with Hs-578T is 50.4 µM (inactive).
Same read-out and setting: to `CCCCOC(=O)CC(CC(=O)OCCCC)(OC(C)=O)C(=O)OCCCC` [ACETYLTRIBUTYL CITRATE] belongs > 123 µM (inactive).
Same read-out and setting: with `COc1cc(C(=O)C2CC3(CCC2(O)c2cc(OC)c(OC)c(OC)c2)CC(=O)Nc2ccccc2C3=O)cc(OC)c1OC` (stereo not given) the figure was 91 µM (inactive).
With `Cc1c2ccncc2c(C)c2c1[nH]c1ccccc12` [ELLIPTECINE], the GI50 in the test on DLD-1 is 0.509 µM (active); in the test with XF498, 1.81 µM (inactive); in the test with KM-20L2 it was 0.548 µM (active); in the test with HOP-18, 1.49 µM (inactive); with SNB-78 it was 1.48 µM (inactive); with DMS-114, 0.94 µM (active).
On to `CC(C)CCCC(C)[C@H]1CCC(C2C[C@@H](O)[C@@H]3CC(O)[C@@H](O)C[C@]3(CO)C2=O)[C@]1(C)CCO` (stereo not given in full), for which the GI50 is 31.7 µM (inactive) with DLD-1; > 42.9 µM (inactive) with XF498; 20 µM (inactive) with KM-20L2; 23.7 µM (inactive) in the test on HOP-18; 32.7 µM (inactive) with SNB-78; 20.6 µM (inactive) in the test on DMS-114.
Turning to `COc1cc(OC2OC(CO)C(O)C(O)C2O)c2c(O)c3c(=O)cc(C)oc3cc2c1` (stereo not given), the GI50 in the test with Hs-578T was > 100 µM (inactive).
Same read-out and setting: to `Nc1nc(Cl)cc(NCC2(CCO)CCC2)n1` belongs > 100 µM (inactive); to `CCCNC(C#N)c1ccc(C(C#N)NCCC)cc1` (stereo not given), > 100 µM (inactive).
As for `Cc1cc(N(CCC#N)CCC#N)ccc1/C=C(\NC(=O)/C=C/c1ccccc1)C(=O)Nc1ccccc1Cl`, the GI50 with DLD-1, with LXFL 529, in the test on KM-20L2, in the test on SNB-78 and in the test on DMS-114 was > 100 µM (inactive) in each case.
As for `COc1cc(-c2cc(O)c3cc4c(cc3n2)OCO4)cc(OC)c1OC`, the GI50 in the test on DLD-1 was > 100 µM (inactive); with XF498, 29.8 µM (inactive); in the test with LXFL 529 it was > 100 µM (inactive); with HOP-18, 72.8 µM (inactive); in the test with SNB-78 it was > 100 µM (inactive).
`O=C1C(=C2CCCC2)CCC1CN1CCCCC1` (stereo not given): the GI50 in the test on LXFL 529 was 13.2 µM (inactive); in the test with KM-20L2 it was 17.5 µM (inactive); with HOP-18, 15.3 µM (inactive); with SNB-78, 19.6 µM (inactive); with DMS-114, 17.5 µM (inactive).
On to `CCC(=O)OCN(C)c1nc(N(C)COC(=O)CC)nc(N(C)COC(=O)CC)n1`, for which the GI50 in the test with Hs-578T is > 100 µM (inactive).
For the compound `CN1C(=O)[C@@H]2[C@@H]3c4ccccc4N(S(=O)(=O)C(F)(F)F)[C@@H]3c3[nH]c4ccccc4c3[C@@H]2C1=O`, the GI50 in the test with Hs-578T was 19.7 µM (inactive).
The same measure, in the same setting: with `O=S(=O)(O)c1ccc2c(/N=N/c3cccc4ccccc34)c(O)c(S(=O)(=O)O)cc2c1` the figure was > 100 µM (inactive).
The same measure, in the same setting: to `O=C(C1C(c2ccccc2)N1C(c1ccccc1)c1ccccc1)C1C(c2ccccc2)N1C(c1ccccc1)c1ccccc1` (stereo not given) belongs 20.2 µM (inactive).
Turning to `CC(C)c1oc(=O)cc2c1C(O)C1OC(=O)C3(C)C(O)C4OC4C2(C)C13` (stereo not given) [NAGILACTONE], the GI50 was 1.23 µM (inactive) in the test with DLD-1; 0.703 µM (active) in the test with XF498; 1.63 µM (inactive) in the test with KM-20L2; 3.48 µM (inactive) in the test on HOP-18; 6.25 µM (inactive) in the test on SNB-78; 1.13 µM (inactive) in the test on DMS-114.
Turning to `O=C(CCc1ccccc1)CC1OC(=O)C(Cl)=C1Cl` (stereo not given), the GI50 with DLD-1 is 18 µM (inactive); in the test on XF498 it was 25.7 µM (inactive); in the test on LXFL 529 it was 15.8 µM (inactive); in the test on KM-20L2, 13.2 µM (inactive); with HOP-18, 23.3 µM (inactive); in the test with SNB-78 it was 46.5 µM (inactive).
Consider `CCOC(=O)c1sc2nc(SC)nc3c2c1NC(=O)CN3c1cccc(F)c1`, for which the GI50 with Hs-578T is 29.2 µM (inactive).
On the same count and under the same terms, to `CC1(C)CC(=O)c2c(nc3c4c([nH]c(-c5ccc([N+](=O)[O-])cc5)c24)CC(C)(C)C3)C1` belongs 56.5 µM (inactive).
For `COC(=O)C1=C(C)N2CCOC2CC1c1ccccc1` (stereo not given), the GI50 in the test with DLD-1 was 78.3 µM (inactive); with LXFL 529, > 100 µM (inactive); in the test with KM-20L2 it was > 100 µM (inactive); in the test with DMS-114 it was > 100 µM (inactive).
Consider `CCn1c(=O)c(C(=O)O)c(Cl)c2cc3c(cc21)OCO3`, for which the GI50 in the test with DLD-1, in the test on XF498, with KM-20L2, in the test with HOP-18 and in the test on SNB-78 was > 100 µM (inactive) in each case.
With `OCCN1c2ccccc2Sc2ccccc21`, the GI50 in the test on Hs-578T was > 10 µM (inactive).
Still for that read-out and setting: to `O=C(Cc1ccccc1)Nc1nc2ccc(Cl)cc2c2nc(-c3ccco3)nn12` belongs 11 µM (inactive).
The same measure, in the same setting: with `CCOC(=O)/C(SC#N)=C(/N)N1CCCC1` the figure was > 100 µM (inactive); with `Cn1c(=O)c2nc3c(=O)n(C)c(=O)n(CC(N)=O)c3nc2n(C)c1=O`, > 100 µM (inactive).
In the case of `CN1Cc2cc3c(cc2-c2ccccc21)OCO3`, the GI50 in the test with DLD-1 was > 100 µM (inactive); with XF498 it was > 100 µM (inactive); in the test with LXFL 529, > 100 µM (inactive); in the test with KM-20L2 it was 91.6 µM (inactive); in the test with HOP-18 it was > 100 µM (inactive); in the test with SNB-78, > 100 µM (inactive).
On to `Clc1ccc(OCc2nnc3sc(-c4ccc(-c5ccc(Cl)cc5Cl)o4)nn23)c(Cl)c1`, for which, in the test on Hs-578T, the GI50 was 19.7 µM (inactive).
Same read-out and setting: with `Oc1ccc(C(=C(Br)c2ccccc2)c2ccc(O)cc2)cc1` the figure was 4.83 µM (inactive); with `C[C@]12CC[C@H](O)CC1=CC[C@@H]1[C@@H]2CC[C@]2(C)C(=O)CC[C@@H]12` [PRASTERONE], 45.6 µM (inactive).
`CC(C)=CCc1c(O)c(CC2=C(O)C(CC=C(C)C)(C(=O)C(C)C)C(O)=C(C)C2=O)c(O)c(C(=O)C(C)C)c1O` (stereo not given): the GI50 in the test on Hs-578T is 9.89 µM (inactive).
On the same count and under the same terms, with `CN1c2ccccc2SC2C(c3ccccc3)=NOC21` (stereo not given) the figure was 29 µM (inactive); with `CCOC(=O)CNC(=O)C(CSCc1ccc(Br)cc1)NC(=O)CCC(N)C(=O)OCC` (stereo not given), > 50 µM (inactive).
Take `CCC1(O)CC(O)c2c(O)c3c(c(O)c2C1C(=O)OC)C(=O)c1cccc(O)c1C3=O` (stereo not given): the GI50 with Hs-578T was 4.7 µM (inactive).
On the same count and under the same terms, to `CN(C)c1cccc(/C=C(\C#N)c2ccccc2)c1` belongs 0.723 µM (active).
In the case of `COc1ccc(C(=O)C(C(=O)C(=O)NC2C3CC4CC(C3)CC2C4)c2ccc(OC)cc2)cc1` (stereo not given), the GI50 with DLD-1, with LXFL 529, with KM-20L2, in the test with HOP-18, with SNB-78 and in the test on DMS-114 was > 100 µM (inactive) throughout.
`Oc1cn(-c2ccc(Cl)cc2)nc1-c1nnc(-c2ccccc2)o1`: the GI50 in the test with Hs-578T was 0.484 µM (active).
Consider `CC(=O)[C@H]1CC[C@@H]2[C@]1(C)CC=C1[C@]23C=C[C@]2(C[C@@H](O)CC[C@]12C)C(C(=O)O)C3C(=O)O` (stereo not given in full), for which, in the test with Hs-578T, the GI50 was > 100 µM (inactive).
Turning to `OCC1OC(n2cnc3c2NC=NC[C@H]3O)C(O)C1O` (stereo not given in full), the GI50 in the test with DLD-1 is 300 µM (inactive); with XF498, > 274 µM (inactive); in the test with KM-20L2, 444 µM (inactive); in the test on HOP-18, 71.3 µM (inactive); with SNB-78, > 450 µM (inactive); in the test with DMS-114, > 450 µM (inactive).
Turning to `CN(C)c1nc(-c2ccccc2)c(C(=O)c2c[nH]c3ccccc23)s1`, the GI50 in the test on Hs-578T was 4.75 µM (inactive).
On the same count and under the same terms, with `CC1(C)C=CC(=O)C(O)C(C)(C)C1=O` (stereo not given) the figure was 28.8 µM (inactive); with `CC(=O)OCc1ccc(-c2nc(C#N)c(N)o2)o1`, > 10 µM (inactive).
As to `COc1ccc(C(c2ccc(C(C)C)cc(=O)c2O)c2ccc3cccnc3c2O)cc1` (stereo not given), the GI50 in the test on DLD-1 was 0.45 µM (active); in the test with XF498, 2.17 µM (inactive); in the test on LXFL 529, 0.506 µM (active); in the test on SNB-78 it was 1.05 µM (active); in the test on DMS-114 it was 0.173 µM (active).
On to `CNC(=S)N/N=C(\C)c1nc2cccnc2[nH]1`, for which, in the test on Hs-578T, the GI50 was > 50 µM (inactive).
`CCOP(=O)(OCC)C(Nc1ccc(C(=O)O)cc1)c1ccc(C(Nc2ccc(C(=O)O)cc2)P(=O)(OCC)OCC)cc1` (stereo not given): the GI50 with Hs-578T is > 100 µM (inactive).
The same measure, in the same setting: with `CN(C)N1C(=O)S/C(=C\c2ccc([N+](=O)[O-])cc2)C1=O` the figure was > 100 µM (inactive).
For the compound `OC[P+](CO)(CO)C12CC3CC(CC(C3)C1)C2`, in the test on Hs-578T, the GI50 is > 100 µM (inactive).
Still for that read-out and setting: to `COC(=O)[C@H](Cc1ccccc1)NP(=O)(O)OCC1C=CC(n2cc(C)c(=O)[nH]c2=O)O1` (stereo not given in full) belongs > 100 µM (inactive); to `O=C1C(N2CCNCC2)=C(Cl)C(=O)c2ncccc21`, > 10 µM (inactive); to `O=C1CC2(CCC(O)(c3cccc4ccccc34)C(C(=O)c3cccc4ccccc34)C2)C(=O)c2ccccc2N1` (stereo not given), 6.78 µM (inactive).
In the case of `Cc1ccnn1CCc1ccc(Cl)cc1Cl`, the GI50 with Hs-578T is 22.9 µM (inactive).
